Experimental data from patent US8604023B2, “1,4-benzodiazepinone compounds and their use in treating cancer” (The Regents of the University of Michigan, priority 2009, dated 2013).

test system: Ramos cells; test: cytotoxicity in Ramos cells; type: cell-based; conditions: Homo sapiens
Procedure: The compounds listed in Table 5 were tested for cytotoxicity in Ramos cells. The assay was conducted as described in K. M. Johnson et al. Chemistry & Biology 2005, 12, 485-496.

Which EC50 does the source give for `CC(=O)Nc1ccc(C2=NC(Cc3ccccc3Cl)C(=O)Nc3ccc(Cl)cc32)cn1` (stereo not drawn) [Compound V-17] here?
Its EC50 is 5 to 25 µM.

`O=C1Nc2ccc(Cl)cc2C(c2ccc(N3CCC(O)CC3)nc2)=NC1Cc1ccccc1Cl` (stereo not drawn) [Compound V-27] was tested. Which EC50 did it give?
Its EC50 is ≤ 5 µM.

`Nc1cncc(C2=NC(Cc3ccccc3Cl)C(=O)Nc3ccc(Cl)cc32)c1` (stereo not drawn) [Compound V-22] was tested. Which EC50 did it give?
Its EC50 is ≥ 25 µM.

`O=C1Nc2ccc(Cl)cc2C(c2ccc(N3CC[C@@H](O)C3)nc2)=NC1Cc1ccccc1Cl` (stereo partly drawn) [Compound V-32] was tested. Which EC50 did it give?
The EC50 was 5 to 25 µM.

Which EC50 does the source give for `CN1C(=O)C(Cc2ccc3ccccc3c2)N=C(c2ccc(N)nc2)c2cc(Cl)ccc21` (stereo not drawn) [Compound V-2] here?
Its EC50 is 5 to 25 µM.

Which EC50 does the source give for `CN1C(=O)C(Cc2ccc3ccccc3c2)N=C(N2CCC3(CC2)OCCO3)c2cc(Cl)ccc21` (stereo not drawn) [Compound V-5] here?
The EC50 was ≤ 5 µM.

For `Cc1n[nH]cc1C1=NC(Cc2ccccc2Cl)C(=O)Nc2ccc(Cl)cc21` (stereo not drawn) [Compound V-40], which EC50 is on record?
The EC50 was 5 to 25 µM.

How did the EC50 turn out when `Nc1ncc(C2=NC(Cc3ccccc3Cl)C(=O)Nc3ccc(Cl)cc32)cn1` (stereo not drawn) [Compound V-20] was run?
The EC50 was 5 to 25 µM.

With `O=C1CCN(C2=NC(Cc3ccc4ccccc4c3)C(=O)Nc3ccc(Cl)cc32)CC1` (stereo not drawn) [Compound V-7] as the molecule, how does the EC50 read?
The EC50 was 5 to 25 µM.

For `CC(=O)NC1CCN(C2=NC(Cc3ccc4ccccc4c3)C(=O)N(C)c3ccc(Cl)cc32)CC1` (stereo not drawn) [Compound V-12], which EC50 is on record?
Its EC50 is 5 to 25 µM.

For `CN1C(=O)C(Cc2ccc3ccccc3c2)N=C(N2CCC(O)CC2)c2cc(Cl)ccc21` (stereo not drawn) [Compound V-1], which EC50 is on record?
The EC50 was ≥ 25 µM.

For `COc1ccc(C2(O)CCN(C3=NC(Cc4ccc5ccccc5c4)C(=O)Nc4ccc(Cl)cc43)CC2)cc1` (stereo not drawn) [Compound V-8], which EC50 is on record?
Its EC50 is ≤ 5 µM.

How did the EC50 turn out when `O=C1Nc2ccc(Cl)cc2C(c2cnc3[nH]c(=O)[nH]c3c2)=NC1Cc1ccccc1Cl` (stereo not drawn) [Compound V-24] was run?
The EC50 was ≤ 5 µM.

How did the EC50 turn out when `CN1C(=O)C(Cc2ccc3ccccc3c2)N=C(c2csc(CO)n2)c2cc(Cl)ccc21` (stereo not drawn) [Compound V-16] was run?
Its EC50 is ≤ 5 µM.

How did the EC50 turn out when `CN1C(=O)C(Cc2ccc3ccccc3c2)N=C(c2cnc(N)cn2)c2cc(Cl)ccc21` (stereo not drawn) [Compound V-3] was run?
Its EC50 is ≥ 25 µM.

With `O=C1Nc2ccc(Cl)cc2C(c2cnc3[nH]c(=O)[nH]c3c2)=NC1CCc1ccccc1Cl` (stereo not drawn) [Compound V-35] as the molecule, how does the EC50 read?
Its EC50 is 5 to 25 µM.

`Nc1ccc(C2=NC(Cc3ccc4ccccc4c3)C(=O)Nc3ccc(Cl)cc32)cn1` (stereo not drawn) [Compound V-4] was tested. Which EC50 did it give?
The EC50 was 5 to 25 µM.

`O=C1Nc2ccc(Cl)cc2C(c2cn[nH]c2)=NC1Cc1ccc2ccccc2c1` (stereo not drawn) [Compound V-39] was tested. Which EC50 did it give?
Its EC50 is ≤ 5 µM.

How did the EC50 turn out when `O=C1Nc2ccc(Cl)cc2C(c2cn[nH]c2)=NC1Cc1ccccc1Cl` (stereo not drawn) [Compound V-37] was run?
Its EC50 is 5 to 25 µM.

`CN1C(=O)C(Cc2ccc3ccccc3c2)N=C(c2ccc(NC(=O)CO)nc2)c2cc(Cl)ccc21` (stereo not drawn) [Compound V-15] was tested. Which EC50 did it give?
The EC50 was 5 to 25 µM.

Which EC50 does the source give for `CN1C(=O)C(Cc2ccc3ccccc3c2)N=C(N2CCC(N)CC2)c2cc(Cl)ccc21` (stereo not drawn) [Compound V-6] here?
The EC50 was 5 to 25 µM.

With `O=C1Nc2ccc(Cl)cc2C(c2ccc(N3CCOCC3)nc2)=NC1Cc1ccccc1Cl` (stereo not drawn) [Compound V-28] as the molecule, how does the EC50 read?
Its EC50 is ≤ 5 µM.

For `O=C1Nc2ccc(Cl)cc2C(c2ccnc(N3CCNCC3)c2)=NC1Cc1ccccc1Cl` (stereo not drawn) [Compound V-25], which EC50 is on record?
Its EC50 is 5 to 25 µM.

How did the EC50 turn out when `O=C1Nc2ccc(Cl)cc2C(c2ccc(N3CCC(CO)CC3)nc2)=NC1Cc1ccccc1Cl` (stereo not drawn) [Compound V-29] was run?
The EC50 was ≤ 5 µM.

With `CN1CCN(c2ccc(C3=NC(Cc4ccccc4Cl)C(=O)Nc4ccc(Cl)cc43)cn2)CC1` (stereo not drawn) [Compound V-26] as the molecule, how does the EC50 read?
The EC50 was ≤ 5 µM.

Which EC50 does the source give for `Nc1ccc(C2=NC(Cc3ccccc3Cl)C(=O)N(C3CC3)c3ccc(Cl)cc32)cn1` (stereo not drawn) [Compound V-36] here?
Its EC50 is 5 to 25 µM.

`Nc1ccc(C2=NC(Cc3ccccc3Cl)C(=O)Nc3ccc(Cl)cc32)cn1` (stereo not drawn) [Compound V-18] was tested. Which EC50 did it give?
Its EC50 is 5 to 25 µM.

How did the EC50 turn out when `CN1C(=O)C(Cc2ccc3ccccc3c2)N=C(N2CCC(NC(=O)c3ccccc3)CC2)c2cc(Cl)ccc21` (stereo not drawn) [Compound V-13] was run?
Its EC50 is ≥ 25 µM.

For `O=C1Nc2ccc(Cl)cc2C(c2ccncc2)=NC1Cc1ccccc1Cl` (stereo not drawn) [Compound V-19], which EC50 is on record?
Its EC50 is 5 to 25 µM.

How did the EC50 turn out when `COCCNc1ccc(C2=NC(Cc3ccccc3Cl)C(=O)Nc3ccc(Cl)cc32)cn1` (stereo not drawn) [Compound V-33] was run?
The EC50 was 5 to 25 µM.

With `CC(=O)N1CCN(c2ccc(C3=NC(Cc4ccccc4Cl)C(=O)Nc4ccc(Cl)cc43)cn2)CC1` (stereo not drawn) [Compound V-30] as the molecule, how does the EC50 read?
Its EC50 is ≤ 5 µM.

How did the EC50 turn out when `CC(=O)OCC(=O)Nc1ccc(C2=NC(Cc3ccc4ccccc4c3)C(=O)N(C)c3ccc(Cl)cc32)cn1` (stereo not drawn) [Compound V-14] was run?
The EC50 was ≤ 5 µM.

For `CN1C(=O)C(Cc2ccc3ccccc3c2)N=C(N2CCC(NC(=O)CN)CC2)c2cc(Cl)ccc21` (stereo not drawn) [Compound V-10], which EC50 is on record?
Its EC50 is ≤ 5 µM.

With `COCCNc1ccc(C2=N[C@@H](Cc3ccccc3Cl)C(=O)Nc3ccc(Cl)cc32)cn1` [Compound V-34] as the molecule, how does the EC50 read?
Its EC50 is 5 to 25 µM.

With `O=C1Nc2ccc(Cl)cc2C(c2ccc(N3CCCC3)nc2)=NC1Cc1ccccc1Cl` (stereo not drawn) [Compound V-31] as the molecule, how does the EC50 read?
The EC50 was ≤ 5 µM.

With `CN1C(=O)C(Cc2ccc3ccccc3c2)N=C(c2ccc(N)cn2)c2cc(Cl)ccc21` (stereo not drawn) [Compound V-11] as the molecule, how does the EC50 read?
Its EC50 is ≤ 5 µM.

Which EC50 does the source give for `CN1C(=O)C(Cc2ccc3ccccc3c2)N=C(N2CCC(NC(=O)OC(C)(C)C)CC2)c2cc(Cl)ccc21` (stereo not drawn) [Compound V-9] here?
The EC50 was ≥ 25 µM.

For `Cc1n[nH]c(C)c1C1=NC(Cc2ccccc2Cl)C(=O)Nc2ccc(Cl)cc21` (stereo not drawn) [Compound V-41], which EC50 is on record?
The EC50 was 5 to 25 µM.

With `CCc1ccc(CC2N=C(c3cnc(N)nc3)c3cc(Cl)ccc3NC2=O)cc1CC` (stereo not drawn) [Compound V-21] as the molecule, how does the EC50 read?
The EC50 was 5 to 25 µM.
